Data: patent US11078171B2, “Non-ATP/catalytic site p38 mitogen activated protein kinase inhibitors” (University of Maryland, Baltimore, priority 2018, dated 2021)

How the values were obtained:
[1] = patients with Crohn's disease; cited from earlier work
[2] = tested on: MK2 phosphorylation in anisomycin-stimulated HeLa cells; test: Inhibition of substrate phosphorylation, phospho-MK2 immunoblot; assay type: cell-based, human; conditions: 10 μM, 30 min pretreatment
Procedure: (§1) Inhibition of substrate phosphorylation: A functional analysis of UM101 to block p38-dependent phosphorylation of MK2 and Stat-1 was performed in HeLa cells. […] Cell extracts prepared in RIPA buffer containing protease and phosphatase inhibitors were resolved by SDS-PAGE, transferred to PVDF membrane, blocked with 5% nonfat dry milk, probed with primary antibodies against phosphorylated MK2 and Stat-1, and total p38α as a loading control. Bands were detected using secondary antibodies conjugated to infrared fluorophores and infrared fluorescence imaging (Odyssey; LICOR).

[3] = tested on: LPS/hyperthermia-induced ALI in mice; conditions: for mice died within 24 h: 1000 μg i.p. 30 min prior to 50 μg LPS i.t./hyperthermia
HMVECLs [4] = test: IL-8-directed neutrophil transendothelial migration (TEM) assay; assay type: cell-based, human
Procedure: Neutrophil transendothelial migration (TEM) assay: Neutrophils were isolated from heparinized venous blood that was collected from healthy volunteers using a protocol approved by the University of Maryland Institutional Review Board and TEM of calcein-labeled neutrophils through HMVECLs was measured.

p38β = molecular target: T1, p38β (Homo sapiens, UniProt Q15759); test: DSF, binding to p38β
T1 construct: HA (N); made in house; host or cells: E. coli BL21
T1 sequence (Q15759 whole entry): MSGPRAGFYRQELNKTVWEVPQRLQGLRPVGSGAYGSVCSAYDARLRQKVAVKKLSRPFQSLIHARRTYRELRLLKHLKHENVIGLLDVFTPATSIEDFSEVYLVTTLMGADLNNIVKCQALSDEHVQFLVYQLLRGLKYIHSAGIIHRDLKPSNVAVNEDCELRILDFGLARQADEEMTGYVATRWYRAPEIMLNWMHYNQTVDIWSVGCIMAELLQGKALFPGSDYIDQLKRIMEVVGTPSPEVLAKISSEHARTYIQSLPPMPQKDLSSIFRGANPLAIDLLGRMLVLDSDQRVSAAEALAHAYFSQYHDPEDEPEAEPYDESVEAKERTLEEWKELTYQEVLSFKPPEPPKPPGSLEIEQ

[5] = tested on: Stat-1 phosphorylation in anisomycin-stimulated HeLa cells; test: Inhibition of substrate phosphorylation, phospho-Stat-1 immunoblot; assay type: cell-based, human; conditions: 10 μM, 30 min pretreatment
Procedure: as §1

HMVECL monolayers = test: Endothelial permeability assay (10 kDa dextran flux), TNFα/hyperthermia; assay type: cell-based, human
Procedure: Endothelial permeability assay: Permeability of HMVECL monolayers was assessed by measuring transendothelial flux of 10 kDa dextran conjugated to Cascade blue fluorescent dye for 30 min at 37° C. in Matrigel-coated 3 μm pore size Transwell plates.
The capacity of UM60 and UM101 to stabilize endothelial barriers to macromolecules and neutrophils in TNFα- and hyperthermia-stressed HMVECL monolayers was tested (FIG. 2).

[6] = tested on: LPS-induced acute lung injury in mice; test: Mouse LPS acute lung injury model with UM101 analogues, total protein in lung lavage fluid (FIG. 9, FIG. 10); assay type: in vivo
Procedure: FIG. 9 illustrates that UM101 and analogues inhibit acute lung injury in a mouse model. Mice were pretreated i.p. with 1 mg of test compounds and then treated with […] LPS i.t. at 39° C. to induce inflammation. Lung injury was assessed by measuring total protein in the lung lavage fluid.
FIG. 10 illustrates that UM101 and analogues inhibit acute lung injury in a mouse model. All mice received 50 μg LPS i.t. and were kept 24 h at 39° C.; all treatments 1 mg in 0.5 ml DMSO given 6 h post-LPS; mean SM, n=5, *p=0.03 vs DMSO #1; †p=0.16 vs DMSO #2. Lung injury was assessed by measuring total protein in the lung lavage fluid.
First, the compounds can block thrombin-induced cell permeability in human vascular endothelial cells (FIG. 8). […] Mice were pretreated i.p. with 1 mg of test compounds and then treated with […] LPS i.t. at 39° C. to induce inflammation. Lung injury was assessed by measuring total protein in the lung lavage fluid. […] All mice received 50 μg LPS i.t. and were kept 24 h at 39° C.; all treatments 1 mg in 0.5 ml DMSO given 6 h post-LPS; mean±SM, n=5, *p=0.03 vs DMSO #1; †p=0.16 vs DMSO #2. Lung injury was assessed by measuring total protein in the lung lavage fluid.

p38α = p38α (Homo sapiens, UniProt Q16539); test: Differential scanning fluorimetry (DSF), binding to p38α
Sequence of p38α (Q16539 whole entry): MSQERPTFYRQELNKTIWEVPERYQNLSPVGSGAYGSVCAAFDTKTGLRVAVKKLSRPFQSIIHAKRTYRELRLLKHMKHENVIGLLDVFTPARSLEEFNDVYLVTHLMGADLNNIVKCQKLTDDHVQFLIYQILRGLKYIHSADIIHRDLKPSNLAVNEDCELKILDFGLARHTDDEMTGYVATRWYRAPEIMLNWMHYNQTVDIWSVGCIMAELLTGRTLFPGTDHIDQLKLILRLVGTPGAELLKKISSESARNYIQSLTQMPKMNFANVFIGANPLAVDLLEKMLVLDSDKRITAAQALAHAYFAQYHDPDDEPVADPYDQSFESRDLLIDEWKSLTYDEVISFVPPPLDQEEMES

ERK2 = ERK2 (Homo sapiens, UniProt P28482); test: DSF, binding to ERK2; conditions: 10-100 μM
Sequence of ERK2 (P28482 whole entry, species assumed): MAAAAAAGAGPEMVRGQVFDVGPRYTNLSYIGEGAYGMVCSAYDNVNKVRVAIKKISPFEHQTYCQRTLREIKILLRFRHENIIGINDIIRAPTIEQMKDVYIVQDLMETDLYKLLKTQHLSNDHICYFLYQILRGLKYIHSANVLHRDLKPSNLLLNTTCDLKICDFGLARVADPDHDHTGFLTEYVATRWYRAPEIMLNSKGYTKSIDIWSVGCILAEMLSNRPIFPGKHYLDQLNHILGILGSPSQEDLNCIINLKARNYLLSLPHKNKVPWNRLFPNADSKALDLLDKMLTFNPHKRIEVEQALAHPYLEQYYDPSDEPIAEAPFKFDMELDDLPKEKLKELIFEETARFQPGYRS
Procedure: Differential Scanning Fluorimetry (DSF): Binding of CADD selected compounds to p38α and […] was tested experimentally using DSF, which evaluates changes in the target protein melting temperature (ΔTm) due to interactions with test compound. SYPRO orange (Invitrogen; diluted 1:1000 in 10 mM HEPES, 150 mM NaCl, pH 7.5) and 1 μM unphosphorylated recombinant human p38α were added to 96-well PCR plates, then 50 nM to 200 μM test compound in 100% DMSO (2% final DMSO concentration) was added, the plates mixed, sealed, centrifuged at 1000 rpm for 1 min, and melting curve performed using an Applied Biosystems real time PCR instrument. The melting point was determined from the first derivative curve. In addition, […], or target-disrupted p38α mutant are used as well.
Test compounds at 10-100 μM were screened for binding to recombinant p38α and ERK2 using DSF (FIG. 1e, Table 1).

HMVECLs [7] = test: MTS cytotoxicity assay; assay type: cell-based, human; conditions: 100 μM for 48 h
Procedure: (§2) Cytotoxicity of HMVECL exposed to 10-100 μM of each compound is analyzed by MTS assay (Promega), LDH release (Promega), and immunoblotting for activated caspase-3 (Cell Signaling).
Cytotoxicity assay: Cytotoxicity was monitored in parallel HMVEC-L monolayers established in 96-well culture plates using a colorimetric assay that measured reduction of 3-(4,5-dimethylthiazol-2-yl)-5-(3-carboxymethoxyphenyl)-2-(4-sulfophenyl)-2H-tetrazolium (MTS) to a formazan dye (CellTiter 96™; Promega; Madison, Wis.) according to the manufacturer's protocol and quantifying product formation by measuring absorption at 490 nm.

HMVECLs [8] = test: LDH release cytotoxicity assay; assay type: cell-based, human; conditions: 100 μM for 48 h
Procedure: as §2

[9] = rheumatoid arthritis, two trials; cited from earlier work
[10] = patients at-risk for ARDS; cited from earlier work
[11] = patients with hypercholesterolemia; cited from earlier work
[12] = FIG. 10: 50 μg LPS i.t., 24 h at 39° C., 1 mg in 0.5 ml DMSO given 6 h post-LPS

SMILES: Cc1ccc(-n2nc(C(C)(C)C)cc2NC(=O)Nc2ccc(OCCN3CCOCC3)c3ccccc23)cc1 [BIRB 796, doramapimod]
- clinical effect [1]: no clinical effect
- serum CRP levels [1]: transiently reduced

SMILES: C[S+]([O-])c1ccc(-c2nc(-c3ccncc3)c(-c3ccc(F)cc3)[nH]2)cc1 (centres unmarked) [SB203580, reference compound]
- anisomycin-stimulated phosphorylation of MK2 [2]: reduced
- reduction of lavage neutrophil content vs. DMSO-treated controls ([3]; 1000 μg i.p.): 46.8%
- mice died within 24 h [3]: one of six
- reduction of hyperthermia-augmented neutrophil TEM (HMVECLs [4]; 10 μM): 84%
- stabilization of p38β (DSF) (p38β): stabilized both p38α and p380
- anisomycin-stimulated phosphorylation of Stat-1 [5]: reduced
- reduction of TNFα/hyperthermia-induced permeability increase (HMVECL monolayers; 10 μM): 50%

SMILES: O=C(Nc1ccc(CN2CCOCC2)cc1)c1ccc(Cl)cc1 [SF-7-009]
- protein leak into bronchoalveolar lavage fluid (total protein) ([6]; FIG. 9: pretreated i.p. with 1 mg, then 100 mg LPS i.t. at 39° C.): reduced protein leak
- protein leak into bronchoalveolar lavage fluid (total protein) [6, 12]: reduced protein leak

SMILES: CN(C)c1cccc2c(S(=O)(=O)Nc3ccc(CN4CCOCC4)cc3)cccc12 [SF-7-044]
- protein leak into bronchoalveolar lavage fluid (total protein) [6, 12]: reduced protein leak

SMILES: O=C1c2cc(S(=O)(=O)NCCO)ccc2-c2ccc(S(=O)(=O)NCCO)cc21 [UM60, N2,N7-di(2-hydroxyethyl)-9-oxo-9H-2,7-fluorenedisulfonamide]
- mice died within 24 h [3]: Four of six
- reduction of hyperthermia-augmented neutrophil TEM (HMVECLs [4]; 10 μM): 18%
- reduction of hyperthermia-augmented neutrophil TEM (HMVECLs [4]; 25 μM): 89%
- reduction of hyperthermia-augmented neutrophil TEM (HMVECLs [4]; 50 μM): less than baseline levels
- stabilization of p38α (DSF) (p38α; 10-100 μM): stabilized p38α
- ΔTm at 100 µM (p38α; read-out: increase of the melting temperature of p38α): ~0.7 °C
- stabilization of ERK2 (DSF) (ERK2): not ERK2
- toxicity in MTS assay (HMVECLs [7]): Neither compound was toxic
- reduction of TNFα/hyperthermia-induced permeability increase (HMVECL monolayers; 10 μM): no effect
- reduction of TNFα/hyperthermia-induced permeability increase (HMVECL monolayers; 25 μM): no effect
- reduction of TNFα/hyperthermia-induced permeability increase (HMVECL monolayers; 100 μM): 71%
- toxicity in LDH release assay (HMVECLs [8]): Neither compound was toxic

SMILES: NC(=O)c1ccc(N(C(N)=O)c2c(F)cccc2F)nc1-c1ccc(F)cc1F [VX-702]
- ACR20 symptom score [9]: small increases in proportion of treated subjects with ACR20 symptom score vs. placebo

SMILES: Cc1cc(F)ccc1-c1nc(NC(CO)CO)nc2c1ccc(=O)n2-c1c(F)cccc1F [dilmapimod]
- safety [10]: safe at the doses administered
- serum C-reactive protein (CRP) levels [10]: modestly reduced

SMILES: Cc1c(F)cc(C(=O)NC2CC2)cc1-c1ccc(C(=O)NCC(C)(C)C)cn1 [losmapimod]
- serum CRP [11]: reduced serum CRP
- vascular relaxation [11]: improved vascular relaxation
